In ChEMBL document CHEMBL3885881, “DrugMatrix”:

Organism: Rattus norvegicus
Test: DrugMatrix - Regimen: Daily Repeat
Assay type: toxicity, organism-based, Sprague-Dawley
Set-up: regimen Daily Repeat, gender Male, age 6-8 weeks
Conditions: in vivo, po, route oral GAVAGE, vehicle .5 % CMC; for ABSOLUTE BASOPHIL / ABSOLUTE EOSINOPHIL / ABSOLUTE LYMPHOCYTE / ABSOLUTE MONOCYTE / ABSOLUTE SEGMENTED NEUTROPHIL / BASOPHIL / EOSINOPHIL / ERYTHROCYTE COUNT / HEMATOCRIT / HEMOGLOBIN / LEUKOCYTE COUNT / LYMPHOCYTE / MEAN CORPUSCULAR HEMOGLOBIN / MEAN CORPUSCULAR HEMOGLOBIN CONCENTRATION / MEAN CORPUSCULAR VOLUME / MONOCYTE / NEUTROPHIL / NUCLEATED RED BLOOD CELLS / PLATELET COUNT: tissue Blood; for ALANINE AMINOTRANSFERASE / ALBUMIN / ALKALINE PHOSPHATASE / ASPARTATE AMINOTRANSFERASE / BLOOD UREA NITROGEN / CARBON DIOXIDE / CHLORIDE / CHOLESTEROL / CREATINE PHOSPHOKINASE / CREATININE / GLUCOSE / LACTATE DEHYDROGENASE / LIPASE / PHOSPHORUS / POTASSIUM / SODIUM / TOTAL BILIRUBIN / TOTAL PROTEIN / URIC ACID: tissue Plasma
[1] = 200 mg/kg, 72 h, dose level Low, time 3 day
[2] = 200 mg/kg, 120 h, dose level Low, time 5 day
[3] = 1300 mg/kg, 72 h, dose level High, time 3 day
[4] = 1300 mg/kg, 120 h, dose level High, time 5 day

NC(=O)c1ccccc1O [SALICYLAMIDE]
ABSOLUTE BASOPHIL [1]: 0 CELLS/uL | ABSOLUTE EOSINOPHIL [1]: 126.67 CELLS/uL | ABSOLUTE LYMPHOCYTE [1]: 13749 CELLS/uL | ABSOLUTE MONOCYTE [1]: 274.67 CELLS/uL | ABSOLUTE SEGMENTED NEUTROPHIL [1]: 2049.67 CELLS/uL | BASOPHIL [1]: 0% | EOSINOPHIL [1]: 0.67% | ERYTHROCYTE COUNT [1]: 5.79 x10E6/uL | HEMATOCRIT [1]: 37.07% | HEMOGLOBIN [1]: 13.9 G/DL | LEUKOCYTE COUNT [1]: 16.2 x10E3/uL | LYMPHOCYTE [1]: 85% | MEAN CORPUSCULAR HEMOGLOBIN [1]: 24.03 pg | MEAN CORPUSCULAR HEMOGLOBIN CONCENTRATION [1]: 37.5 G/DL | MEAN CORPUSCULAR VOLUME [1]: 64.07 fL | MONOCYTE [1]: 1.67% | NEUTROPHIL [1]: 12.67% | NUCLEATED RED BLOOD CELLS [1]: 0 /100WBC | PLATELET COUNT [1]: 1342.33 x10E3/uL | ALANINE AMINOTRANSFERASE [1]: 47 u/L | ALBUMIN [1]: 4.23 G/DL | ALKALINE PHOSPHATASE [1]: 337 u/L | ASPARTATE AMINOTRANSFERASE [1]: 92 u/L | BLOOD UREA NITROGEN [1]: 14.67 mg/dL | CARBON DIOXIDE [1]: 28.67 mmol/L | CHLORIDE [1]: 102.33 MEQ/L | CHOLESTEROL [1]: 91.33 mg/dL | CREATINE PHOSPHOKINASE [1]: 270 u/L | CREATININE [1]: 0.24 mg/dL | GLUCOSE [1]: 149.67 mg/dL | LACTATE DEHYDROGENASE [1]: 413.33 u/L | LIPASE [1]: 9.67 u/L | PHOSPHORUS [1]: 12.53 mg/dL | POTASSIUM [1]: 7.01 MEQ/L | SODIUM [1]: 146.23 MEQ/L | TOTAL BILIRUBIN [1]: 0.2 mg/dL | TOTAL PROTEIN [1]: 5.93 G/DL | URIC ACID [1]: 1.77 mg/dL | ABSOLUTE BASOPHIL [2]: 0 CELLS/uL | ABSOLUTE EOSINOPHIL [2]: 0 CELLS/uL | ABSOLUTE LYMPHOCYTE [2]: 13314 CELLS/uL | ABSOLUTE MONOCYTE [2]: 96.33 CELLS/uL | ABSOLUTE SEGMENTED NEUTROPHIL [2]: 1389.67 CELLS/uL | BASOPHIL [2]: 0% | EOSINOPHIL [2]: 0% | ERYTHROCYTE COUNT [2]: 5.67 x10E6/uL | HEMATOCRIT [2]: 34.73% | HEMOGLOBIN [2]: 13.53 G/DL | LEUKOCYTE COUNT [2]: 14.8 x10E3/uL | LYMPHOCYTE [2]: 90% | MEAN CORPUSCULAR HEMOGLOBIN [2]: 24 pg | MEAN CORPUSCULAR HEMOGLOBIN CONCENTRATION [2]: 39 G/DL | MEAN CORPUSCULAR VOLUME [2]: 61.53 fL | MONOCYTE [2]: 0.67% | NEUTROPHIL [2]: 9.33% | NUCLEATED RED BLOOD CELLS [2]: 0 /100WBC | PLATELET COUNT [2]: 1300.67 x10E3/uL | ALANINE AMINOTRANSFERASE [2]: 41.67 u/L | ALBUMIN [2]: 4.13 G/DL | ALKALINE PHOSPHATASE [2]: 340 u/L | ASPARTATE AMINOTRANSFERASE [2]: 77.67 u/L | BLOOD UREA NITROGEN [2]: 15.33 mg/dL | CARBON DIOXIDE [2]: 27 mmol/L | CHLORIDE [2]: 104 MEQ/L | CHOLESTEROL [2]: 78.33 mg/dL | CREATINE PHOSPHOKINASE [2]: 235.33 u/L | CREATININE [2]: 0.22 mg/dL | GLUCOSE [2]: 151 mg/dL | LACTATE DEHYDROGENASE [2]: 176 u/L | LIPASE [2]: 9.33 u/L | PHOSPHORUS [2]: 12.43 mg/dL | POTASSIUM [2]: 6.83 MEQ/L | SODIUM [2]: 145.3 MEQ/L | TOTAL BILIRUBIN [2]: 0.13 mg/dL | TOTAL PROTEIN [2]: 5.83 G/DL | URIC ACID [2]: 1.57 mg/dL | ABSOLUTE BASOPHIL [3]: 0 CELLS/uL | ABSOLUTE EOSINOPHIL [3]: 0 CELLS/uL | ABSOLUTE LYMPHOCYTE [3]: 15293.5 CELLS/uL | ABSOLUTE MONOCYTE [3]: 351 CELLS/uL | ABSOLUTE SEGMENTED NEUTROPHIL [3]: 1905.5 CELLS/uL | BASOPHIL [3]: 0% | EOSINOPHIL [3]: 0% | ERYTHROCYTE COUNT [3]: 6 x10E6/uL | HEMATOCRIT [3]: 36.9% | HEMOGLOBIN [3]: 14.4 G/DL | LEUKOCYTE COUNT [3]: 17.55 x10E3/uL | LYMPHOCYTE [3]: 87% | MEAN CORPUSCULAR HEMOGLOBIN [3]: 24 pg | MEAN CORPUSCULAR HEMOGLOBIN CONCENTRATION [3]: 39 G/DL | MEAN CORPUSCULAR VOLUME [3]: 61.55 fL | MONOCYTE [3]: 2% | NEUTROPHIL [3]: 11% | NUCLEATED RED BLOOD CELLS [3]: 0 /100WBC | PLATELET COUNT [3]: 1429 x10E3/uL | ALANINE AMINOTRANSFERASE [3]: 90 u/L | ALBUMIN [3]: 4.2 G/DL | ALKALINE PHOSPHATASE [3]: 469 u/L | ASPARTATE AMINOTRANSFERASE [3]: 83 u/L | BLOOD UREA NITROGEN [3]: 14 mg/dL | CARBON DIOXIDE [3]: 30.5 mmol/L | CHLORIDE [3]: 101 MEQ/L | CHOLESTEROL [3]: 71.5 mg/dL | CREATINE PHOSPHOKINASE [3]: 167.5 u/L | CREATININE [3]: 0.12 mg/dL | GLUCOSE [3]: 146.5 mg/dL | LACTATE DEHYDROGENASE [3]: 166 u/L | LIPASE [3]: 9.5 u/L | PHOSPHORUS [3]: 12.5 mg/dL | POTASSIUM [3]: 6.86 MEQ/L | SODIUM [3]: 145.55 MEQ/L | TOTAL BILIRUBIN [3]: 0.2 mg/dL | TOTAL PROTEIN [3]: 5.75 G/DL | URIC ACID [3]: 1.65 mg/dL | ABSOLUTE BASOPHIL [4]: 0 CELLS/uL | ABSOLUTE EOSINOPHIL [4]: 33.67 CELLS/uL | ABSOLUTE LYMPHOCYTE [4]: 13088.67 CELLS/uL | ABSOLUTE MONOCYTE [4]: 0 CELLS/uL | ABSOLUTE SEGMENTED NEUTROPHIL [4]: 1544.33 CELLS/uL | BASOPHIL [4]: 0% | EOSINOPHIL [4]: 0.33% | ERYTHROCYTE COUNT [4]: 5.56 x10E6/uL | HEMATOCRIT [4]: 35.47% | HEMOGLOBIN [4]: 14.03 G/DL | LEUKOCYTE COUNT [4]: 14.67 x10E3/uL | LYMPHOCYTE [4]: 88.67% | MEAN CORPUSCULAR HEMOGLOBIN [4]: 25.27 pg | MEAN CORPUSCULAR HEMOGLOBIN CONCENTRATION [4]: 39.6 G/DL | MEAN CORPUSCULAR VOLUME [4]: 63.83 fL | MONOCYTE [4]: 0% | NEUTROPHIL [4]: 11% | NUCLEATED RED BLOOD CELLS [4]: 0.33 /100WBC | PLATELET COUNT [4]: 1393 x10E3/uL | ALANINE AMINOTRANSFERASE [4]: 71 u/L | ALBUMIN [4]: 4.07 G/DL | ALKALINE PHOSPHATASE [4]: 356.67 u/L | ASPARTATE AMINOTRANSFERASE [4]: 83.33 u/L | BLOOD UREA NITROGEN [4]: 16 mg/dL | CARBON DIOXIDE [4]: 23 mmol/L | CHLORIDE [4]: 106.33 MEQ/L | CHOLESTEROL [4]: 70.33 mg/dL | CREATINE PHOSPHOKINASE [4]: 456 u/L | CREATININE [4]: 0.21 mg/dL | GLUCOSE [4]: 189.33 mg/dL | LACTATE DEHYDROGENASE [4]: 144.67 u/L | LIPASE [4]: 10 u/L | PHOSPHORUS [4]: 12.87 mg/dL | POTASSIUM [4]: 5.46 MEQ/L | SODIUM [4]: 149.13 MEQ/L | TOTAL BILIRUBIN [4]: 0.27 mg/dL | TOTAL PROTEIN [4]: 5.83 G/DL | URIC ACID [4]: 1.7 mg/dL
